Source: publication PMC7797070 (Nucleic Acids Research, 2020)

Experiments:
[1] = molecular target: T1, E. coli RelA (full-length) (Escherichia coli, UniProt P0AG20); experiment: 3H-; assay type: biochemical; settings: labelled compound; 1 mM ATP; 100 μM ppGpp or pppGpp added; 37 °C
T1 sequence (P0AG20 1-744): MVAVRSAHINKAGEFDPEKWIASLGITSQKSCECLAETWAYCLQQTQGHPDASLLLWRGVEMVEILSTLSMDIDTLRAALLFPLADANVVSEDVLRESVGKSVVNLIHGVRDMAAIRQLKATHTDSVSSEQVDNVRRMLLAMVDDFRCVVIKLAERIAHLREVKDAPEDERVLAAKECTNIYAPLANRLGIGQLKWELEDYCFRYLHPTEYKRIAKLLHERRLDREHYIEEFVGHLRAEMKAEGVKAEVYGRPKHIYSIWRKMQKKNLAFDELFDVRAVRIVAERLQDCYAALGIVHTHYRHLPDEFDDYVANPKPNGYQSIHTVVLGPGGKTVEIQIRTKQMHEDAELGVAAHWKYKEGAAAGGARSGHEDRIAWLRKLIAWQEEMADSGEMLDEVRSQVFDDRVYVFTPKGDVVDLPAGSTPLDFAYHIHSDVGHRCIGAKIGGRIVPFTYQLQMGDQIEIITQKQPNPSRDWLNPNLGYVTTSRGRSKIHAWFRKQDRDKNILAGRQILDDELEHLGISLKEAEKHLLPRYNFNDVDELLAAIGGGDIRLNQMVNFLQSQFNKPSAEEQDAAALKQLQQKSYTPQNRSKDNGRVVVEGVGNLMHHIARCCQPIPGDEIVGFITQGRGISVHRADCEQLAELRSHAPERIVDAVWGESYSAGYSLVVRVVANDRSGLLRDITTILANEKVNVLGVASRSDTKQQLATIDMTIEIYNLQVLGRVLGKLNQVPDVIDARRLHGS

[2] = molecular target: B. subtilis Rel (full-length) (Bacillus subtilis, UniProt O54408); experiment: 3H-; assay type: biochemical; settings: 0.3 mM labelled compound; 1 mM ATP; 5 mM Mg2+; pH 7.5, 37 °C
Chain of B. subtilis Rel (full-length) (O54408 whole entry): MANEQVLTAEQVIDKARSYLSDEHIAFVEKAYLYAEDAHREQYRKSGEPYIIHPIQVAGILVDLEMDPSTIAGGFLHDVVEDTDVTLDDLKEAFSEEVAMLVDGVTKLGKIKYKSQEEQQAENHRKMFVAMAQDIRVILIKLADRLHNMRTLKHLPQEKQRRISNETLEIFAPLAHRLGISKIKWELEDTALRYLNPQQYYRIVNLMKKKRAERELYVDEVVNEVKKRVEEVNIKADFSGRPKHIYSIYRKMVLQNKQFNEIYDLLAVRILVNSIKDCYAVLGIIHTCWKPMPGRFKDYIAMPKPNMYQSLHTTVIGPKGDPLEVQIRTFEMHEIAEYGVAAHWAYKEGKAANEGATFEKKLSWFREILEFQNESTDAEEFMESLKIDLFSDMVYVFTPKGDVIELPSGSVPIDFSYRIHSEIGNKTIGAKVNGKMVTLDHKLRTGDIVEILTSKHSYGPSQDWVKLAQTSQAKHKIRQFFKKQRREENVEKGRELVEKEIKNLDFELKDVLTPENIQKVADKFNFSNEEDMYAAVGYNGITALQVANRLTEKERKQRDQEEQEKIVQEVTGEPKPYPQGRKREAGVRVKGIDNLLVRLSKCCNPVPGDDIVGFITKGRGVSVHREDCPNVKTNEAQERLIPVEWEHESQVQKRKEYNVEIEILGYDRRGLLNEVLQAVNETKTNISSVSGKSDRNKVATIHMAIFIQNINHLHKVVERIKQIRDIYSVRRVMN

[3] = molecular target: Rel^NTD (B. subtilis Rel NTD, 1-373) (Bacillus subtilis, UniProt O54408); experiment: isothermal titration calorimetry; assay type: binding
Chain of Rel^NTD (B. subtilis Rel NTD, 1-373) (O54408 1-373): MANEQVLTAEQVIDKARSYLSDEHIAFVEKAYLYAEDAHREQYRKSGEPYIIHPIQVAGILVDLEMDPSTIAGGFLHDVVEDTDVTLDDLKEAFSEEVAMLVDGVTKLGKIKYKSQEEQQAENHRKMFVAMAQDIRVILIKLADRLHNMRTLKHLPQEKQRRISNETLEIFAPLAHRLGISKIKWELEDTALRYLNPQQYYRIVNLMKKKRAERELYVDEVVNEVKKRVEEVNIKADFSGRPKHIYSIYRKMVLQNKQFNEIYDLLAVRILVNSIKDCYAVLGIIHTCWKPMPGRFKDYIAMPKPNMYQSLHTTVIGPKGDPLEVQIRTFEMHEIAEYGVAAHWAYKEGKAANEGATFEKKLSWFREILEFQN

[4] = molecular target: T2, RelA^NTD (E. coli RelA NTD, 1-385) (Escherichia coli, UniProt P0AG20); experiment: isothermal titration calorimetry; assay type: binding
T2 sequence (P0AG20 1-385): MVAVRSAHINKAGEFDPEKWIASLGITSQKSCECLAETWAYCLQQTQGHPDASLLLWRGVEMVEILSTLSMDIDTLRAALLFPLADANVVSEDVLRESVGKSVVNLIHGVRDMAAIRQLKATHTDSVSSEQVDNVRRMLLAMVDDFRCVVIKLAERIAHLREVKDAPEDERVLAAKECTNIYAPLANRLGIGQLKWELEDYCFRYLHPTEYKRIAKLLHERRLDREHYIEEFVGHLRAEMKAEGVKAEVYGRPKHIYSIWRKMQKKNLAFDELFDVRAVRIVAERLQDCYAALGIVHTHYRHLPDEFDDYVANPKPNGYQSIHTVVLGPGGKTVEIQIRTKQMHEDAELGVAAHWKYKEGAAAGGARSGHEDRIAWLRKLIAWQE

`Nc1nc2c(ncn2[C@@H]2O[C@H](COP(=O)(O)OP(=O)(O)O)[C@@H](O)[C@H]2O)c(=O)[nH]1` [GDP] was tested. Which “3H-(p)ppGpp synthesis assay, TLC and scintillation counting” value [1] did it give?
The value was “the ppGpp alarmone is produced in situ from 3H-GDP”.

For `Nc1nc2c(ncn2[C@@H]2O[C@H](COP(=O)(O)OP(=O)(O)OP(=O)(O)O)[C@@H](O)[C@H]2O)c(=O)[nH]1` [GTP], which “3H-(p)ppGpp synthesis assay, TLC and scintillation counting” value [2] is on record?
The value was “B. subtilis Rel is moderately more efficient in converting GTP to pppGpp”.

What does the source list for `Nc1nc2c(ncn2[C@@H]2O[C@H](COP(=O)(O)OP(=O)(O)OP(=O)(O)O)[C@@H](OP(=O)(O)OP(=O)(O)O)[C@H]2O)c(=O)[nH]1` [pppGpp]?
Kd [3]: 10.6 ± 0.9 µM; Kd [4]: 6.9 ± 0.9 µM
